Reference: US8048915B2, “Biologically active complex” (BioMas Ltd., priority 2001, dated 2011)
Where “and” joins values, the source holds several entries; their conditions need not be identical. Equal values may be shown once. Read-outs that look alike come from different tables or passages of the source.

Assays:
IL-2 [1] = conditions: 72 hours culture, 50% supernatant on CTLD cells
Excerpt: Culture supernatants were collected, centrifuged and tested for IL-2 activity by using 50% of the volume of the supernatant assaying their ability to support the proliferation of the IL-2 dependent cell line CTLD.

IL-2 [2] = system: IL-2
Method: The complexes were administered in these dilutions, as drinking water, to male Balb-C mice, 6-8 weeks of age over a 4 day period. The exact amount of liquid intake was recorded daily. […] The cells were incubated at a concentration of 10^7 cells/ml in enriched RPMI containing 2 μg/ml of con-A for 24 hours at 37° C. The supernatants were collected and tested for IL-2 content.

human mononuclear cells = experiment: Proliferation of human mononuclear cells (Example 14); assay type: cell-based; conditions: 72 hours + 24 hours label, listed as Ex. 1
Method: Human mononuclear cells were obtained by layering heparinized blood over a Ficoll/Hypaque gradient. The mononuclear cells were resuspended in enriched RPMI, rinsed three times and brought to a concentrations of 5×10^5cells/ml enriched RPMI. Varying concentrations of the complexes of Ex. 1 and Ex. 7(a), ranging from 0.005 μg to 5 μg/cell mixture were added to the cells. Aliquots of 0.2 ml of each sample were placed in wells of microplates (triplicates).

IL-2 receptors = experiment: IL-2 receptor sites on human mononuclear cells, fluoresceinated antibody; assay type: cell-based; conditions: 1 μg/ml; 24 hours incubation
Method: This example provides an assay to detect the presence of receptor sites for IL-2. […] The cells were washed twice with PBS and then incubated with a specific fluoresceinated antibody against IL-2 receptors as described in Uchiyama et al, J. Immunol.

West Nile virus (WNV) [3] = system: West Nile virus (WNV)
Excerpt: WNV is a toga virus of the flavivirus group, a positive single stranded RNA virus, which when injected IP to mice usually kills them within 5-8 days as a result of extensive damage to the central nervous system.

[4] = system: V-mos transformed NIH-3T3 cells; experiment: Colony growth of V-mos transformed NIH-3T3 cells; assay type: cell-based; conditions: one week; clones counted
Method: 5×10^2 cells were plated per 60 mm dish and incubated with different concentrations (0.005-5 μg/ml) of the complex in PBS. A week later, the cells were stained with Gimsa and clones were counted. Similar experiments were conducted using V-mos transformed NIH-3T3 cells, and also using Ph2TeCl2 and Ph3TeCl, with both types of transformed cells.

mice = conditions: 6 week old mice; preliminary
IL-2 [5] = system: IL-2; remark: listed apart in the source
West Nile virus (WNV) [6] = system: West Nile virus (WNV); remark: listed apart in the source
[7] = 1 μg/ml H2O as drinking water over 4 days
[8] = 10 μg/ml H2O as drinking water over 4 days

## Cl[Te]1(Cl)(Cl)OCCO1.N [Example 1, equimolar complex of TeO2 and ethylene glycol, NH4Cl salt]
IL-2 [1]; 1 ng
  IL-2 activity, Counts per minute: 11,000 Counts per minute
IL-2 [1]; 10 ng
  IL-2 activity, Counts per minute: 1,500 Counts per minute
IL-2 [1]; 1 μg
  IL-2 activity, Counts per minute: 250 Counts per minute
IL-2 [1]; 100 μg
  IL-2 activity, Counts per minute: 280 Counts per minute
IL-2 [2]; [7]
  IL-2 content, cpm: 44500 cpm
  Percent increase as compared to control: +35%
IL-2 [2]; [8]
  IL-2 content, cpm: 49179 cpm
  Percent increase as compared to control: +50%
IL-2 [2]; orally in an aqueous diluent
  inducing lymphokine production when given orally: active
Human mononuclear cells; 5 μg/ml
  proliferation of human mononuclear cells (3H methyl-thymidine): 5008 and 5182
Human mononuclear cells; 1 × 10^−5 μg/ml
  proliferation of human mononuclear cells (3H methyl-thymidine): 3218 and 2442
IL-2 receptors
  cells positive for IL-2 receptors: 20%
West Nile virus (WNV) [3]; mouse, in vivo
  susceptibility of West Nile virus infections in mice: susceptible
West Nile virus (WNV) [3]; mouse, in vivo, ip
  # Alive/Total: 3/5
West Nile virus (WNV) [3]; second experiment, 10^3 IPLD50 virus + complex
  fate of the three survivors after day 8: Two out of the remaining three survived an additional 8 days, whereas the third remained alive without any manifestations of clinical symptoms
[4]
  inhibition of growth: none of the complex, Ph2TeCl2 or Ph3TeCl inhibited the growth
mice
  LD50: 300 μg/25 g of body weight
Fibrosarcoma cells; 10 μg IP at intervals, 4 days after inoculation with tumor cells
  % Survival: 100%
Fibrosarcoma cells; 10 μg IP at intervals, 9 days after inoculation with tumor cells
  % Survival: 100%
Fibrosarcoma cells; 10 μg IP at intervals, 23 days after inoculation with tumor cells
  % Survival: 100%
Fibrosarcoma cells; 10 μg IP at intervals, 30 days after inoculation with tumor cells
  % Survival: 100%
Fibrosarcoma cells; 10 μg IP at intervals, 37 days after inoculation with tumor cells
  % Survival: 100%
Fibrosarcoma cells; 39 days after inoculation with tumor cells, start of increased dosage regimen
  % Survival: 100%
Fibrosarcoma cells; 41 days after inoculation, increased dosage regimen from day 39
  % Survival: 100%
Fibrosarcoma cells; 43 days after inoculation, increased dosage regimen from day 39
  % Survival: 100%
Fibrosarcoma cells; 46 days after inoculation, increased dosage regimen from day 39
  % Survival: 80%
Fibrosarcoma cells; 48 days after inoculation, increased dosage regimen from day 39
  % Survival: 80%
Fibrosarcoma cells; 50 days after inoculation, increased dosage regimen from day 39
  % Survival: 80%
Fibrosarcoma cells; 53 days after inoculation, increased dosage regimen from day 39
  % Survival: 60%
Fibrosarcoma cells; 60 days after inoculation, increased dosage regimen from day 39
  % Survival: 40%
Fibrosarcoma cells; 67 days after inoculation, increased dosage regimen from day 39
  % Survival: 20%
Fibrosarcoma cells; 68 days after inoculation, increased dosage regimen from day 39
  % Survival: 0%
Fibrosarcoma cells; group (b), until just after the increased dosage regimen (day 39)
  mortality: ^1Day 39 marked the start of an increased dosage regimen to determine the toxicity of the complex of Example 1. The mortality results for group (b) were 0% until just after the increased dosage regimen.
IL-2 [5]; NORMAL subjects, PHA +, 5 μg 0.2 ml PBS
  IL-2 production: 30.4 CPM × 10^−3 and 38.9 CPM × 10^−3 and 36.4 CPM × 10^−3
IL-2 [5]; NORMAL subjects, PHA +, 1:50 PBS dilution of 5 μg/0.2 ml
  IL-2 production: 38.9 CPM × 10^−3 and 53.5 CPM × 10^−3 and 48.2 CPM × 10^−3
IL-2 [5]; NORMAL subjects, PHA +, 1:100 PBS dilution of 5 μg/0.2 ml
  IL-2 production: 54.2 CPM × 10^−3 and 44.8 CPM × 10^−3 and 38.6 CPM × 10^−3
IL-2 [5]; NORMAL subjects, PHA +, 1:200 PBS dilution of 5 μg/0.2 ml
  IL-2 production: 49.8 CPM × 10^−3 and 38.3 CPM × 10^−3 and 38.6 CPM × 10^−3
IL-2 [5]; NORMAL subjects, PHA −, 5 μg 0.2 ml PBS
  IL-2 production: 2.1 CPM × 10^−3 and 2.3** CPM × 10^−3
IL-2 [5]; NORMAL subjects, PHA −, 1:50 PBS dilution of 5 μg/0.2 ml
  IL-2 production: 52.2 CPM × 10^−3 and 50.8 CPM × 10^−3 and 43.6 CPM × 10^−3
IL-2 [5]; NORMAL subjects, PHA −, 1:100 PBS dilution of 5 μg/0.2 ml
  IL-2 production: 50.3 CPM × 10^−3 and 46.1 CPM × 10^−3 and 38.4 CPM × 10^−3
IL-2 [5]; NORMAL subjects, PHA −, 1:200 PBS dilution of 5 μg/0.2 ml
  IL-2 production: 47.1 CPM × 10^−3 and 31.3 CPM × 10^−3 and 30.1 CPM × 10^−3
IL-2 [5]; SLE patients, PHA +, 5 μg 0.2 ml PBS
  IL-2 production: 6.3 CPM × 10^−3 and 8.2 CPM × 10^−3 and 4.1 CPM × 10^−3
IL-2 [5]; SLE patients, PHA +, 1:50 PBS dilution of 5 μg/0.2 ml
  IL-2 production: 24.2 CPM × 10^−3 and 28.1 CPM × 10^−3 and 23.8 CPM × 10^−3
IL-2 [5]; SLE patients, PHA +, 1:100 PBS dilution of 5 μg/0.2 ml
  IL-2 production: 19.7 CPM × 10^−3 and 24.0 CPM × 10^−3 and 20.2 CPM × 10^−3
IL-2 [5]; SLE patients, PHA +, 1:200 PBS dilution of 5 μg/0.2 ml
  IL-2 production: 15.4 CPM × 10^−3 and 18.6 CPM × 10^−3 and 16.8 CPM × 10^−3
IL-2 [5]; SLE patients, PHA −, 5 μg 0.2 ml PBS
  IL-2 production: 2.0 CPM × 10^−3 and 2.4 CPM × 10^−3
IL-2 [5]; SLE patients, PHA −, 1:100 PBS dilution of 5 μg/0.2 ml
  IL-2 production: 32.1 CPM × 10^−3 and 35.1 CPM × 10^−3 and 18.1 CPM × 10^−3
West Nile virus (WNV) [6]
  reduction in virus yield: ten
  reduction of virus yield: 40 fold
